Test results published in PubChem BioAssay AID720577 (The Scripps Research Institute Molecular Screening Center, 2013).
Where “and” joins values, the source holds several entries; their conditions need not be identical. Equal values may be shown once. Calls of active or inactive are those of the source. The rule behind the calls is not given here.

molecular target: CCHF virus vOTU protease domain (L polyprotein); experiment: Crimean Congo hemorrhagic fever virus vOTU protease, Pep AMC substrate, counterscreen, confirmatory (AID 720577); settings: purified vOTU, fluorescence

SMILES | IC50
COc1cc(NC(=O)COC(=O)c2ccc([N+](=O)[O-])s2)cc(OC)c1OC | inactive
Cc1ccc(Cl)cc1NC1=C/C(=N\S(=O)(=O)c2cccs2)c2ccccc2C1=O | 2.37 µM
O=C1OC(Nc2cc(Br)cc3cccnc23)c2ccccc21 (configuration not stated) | 5.44 µM
COc1ccc2noc3c2c1C(=O)c1ccccc1-3 | 6.28 µM
CC(=O)N(/N=C1\Sc2ccccc2C1=O)c1cccc(C)c1 | inactive
COc1ccc(Cc2nccc3cc(OC)c(OC)cc23)cc1OC | inactive
O=S(=O)(Nc1cc(Sc2ncn[nH]2)c(O)c2ccccc12)c1ccccc1 | 2.16 µM
CCOC(=O)N=Nc1c2ccccc2c2nc3no[nH]c3nc12 | 7.75 µM
CC(C)C[C@H](NC(=O)c1[nH]cnc1C(=O)N[C@@H](C)C(=O)OC(C)(C)C)C(=O)OC(C)(C)C | inactive
O=C(COC(=O)c1ccc([N+](=O)[O-])s1)Nc1ccc(F)cc1 | inactive
O=C(c1ccco1)[C@@H]1[C@@H]2C(=O)N(c3ccc(Br)cc3)C(=O)[C@@H]2C2c3ccccc3C=CN21 (some centres not stated) | inactive
Cc1ccc(NC2=C/C(=N/S(=O)(=O)c3cccs3)c3ccccc3C2=O)cc1 | 1.79 µM
CCOC(=O)C1CCN(C(=O)c2c(C)oc3c2C(=O)c2ccccc2C3=O)CC1 | inactive
O=C(COC(=O)c1ccc([N+](=O)[O-])s1)Nc1ccc(Cl)cn1 | > 115 µM (inactive)
NC1=C(Br)C(=O)c2ccccc2C1=O | 6.65 µM
O=C1C(=O)c2ccccc2-c2ccccc21 | 3.75 µM
O=[N+]([O-])c1cc(O)c2ncccc2c1 | inactive
O=C(O)c1ccc(NC2=C/C(=N/S(=O)(=O)c3ccccc3)c3ccccc3C2=O)cc1 | 1.03 µM
O=C1C=C(O)c2[nH]c(=O)ccc2C1=O | inactive
CCOCCCNC1=C(Cl)C(=O)c2ccccc2C1=O | inactive
Cc1ccc(S(=O)(=O)/N=C2\C=C(Nc3cccc(C(=O)O)c3)C(=O)c3ccccc32)c(C)c1 | 2.36 µM
CCn1nc(/C=C/c2ccccc2)nc2c(=O)n(C)c(=O)nc1-2 | 0.487 µM

SMILES | IC50
COc1ccc(C(C[N+](=O)[O-])c2c(C)[nH]n(-c3ccccc3)c2=O)cc1 (configuration not stated) | > 115 µM (inactive)
O=C1NC(c2ccc(-c3ccccc3[N+](=O)[O-])o2)C(C(=O)c2ccc(Cl)cc2)C(O)(C(F)(F)F)N1 (configuration not stated) | inactive
O=C1Cc2ccccc2C(=O)N1 | 0.597 µM
CC(=O)c1ccc(NC2=C(N3CCOCC3)C(=O)c3ccccc3C2=O)cc1 | inactive
COc1ccc(/C=N/NC(=O)c2nn(-c3ccc(Cl)cc3)c(=O)c3c(N)scc23)cc1 | inactive
O=C(NC1=CC(=O)c2ccccc2C1=O)c1ccccc1 | inactive
O=C(COC(=O)c1ccc([N+](=O)[O-])s1)Nc1ccccc1 | inactive
CC(=O)N(/N=C1\Sc2ccccc2C1=O)c1ccccc1C | inactive
CN=c1sc2c(n1C)C(=O)c1ccccc1C2=O | 5.75 µM
Cc1ccc(NC2=CC(=O)C(=O)c3ccccc32)cc1 | inactive
CN(C)c1ncc(C2=C(Cl)C(=O)C(N3CCCC3)=C(Cl)C2=O)s1 | inactive
O=C(O)c1ccc(S(=O)(=O)/N=C2\C=C(Nc3ccccc3F)C(=O)c3ccccc32)cc1 | 1.24 µM
O=C(NC(=S)Nc1ccccc1N1CCCC1)c1cccs1 | > 115 µM (inactive)
O=C(O)c1ccc(NC2=C/C(=N/S(=O)(=O)c3cccs3)c3ccccc3C2=O)cc1 | 1.4 µM
CCOC(=O)c1cc2c(ccn2C)n1Cc1ccccc1C | inactive
CC1OC2CC(=O)OC2C2=C1C(=O)c1c(O)cccc1C2=O (configuration not stated) | inactive
CCCCCCCCCCCCCCCC[n+]1ccccc1 | 7.79 µM and 8.46 µM and 6.99 µM
CC(C)(C)c1cc[n+](C2=C([O-])c3ccccc3C(=O)/C2=N\S(=O)(=O)c2cccs2)cc1 | inactive
O=C1C(Cl)=C(NCCCO)C(=O)c2ccccc21 | inactive
NC1=C(Cl)C(=O)c2ccc(S(N)(=O)=O)cc2C1=O | 0.387 µM
CC(=O)N(C1=C(Cl)C(=O)c2ccccc2C1=O)c1ccc(C(=O)O)cc1 | 4.77 µM
Cn1c(=O)c2c(-c3ccccc3)n(-c3ccc(N)cc3)cc2n(C)c1=O | inactive

SMILES | IC50
Oc1ccccc1CNc1cccc2cccnc12 | inactive
Cc1ccccc1-c1cc2c(nn1)-c1ccccc1C2=O | 2.23 µM
Nc1scc2c(C(=O)N/N=C/c3ccc(Cl)cc3)nn(-c3ccccc3)c(=O)c12 | inactive
Oc1c(C=Nc2cccc3nsnc23)ccc2ccccc12 | inactive
O=C(COC(=O)c1ccc([N+](=O)[O-])s1)Nc1ncc(C(F)(F)F)cc1Cl | inactive
Cc1ccc(NC2=C(N3CCCCC3)C(=O)c3ccccc3C2=O)cc1 | inactive
Clc1ccc(C2=CSC3=Nc4cccc5cccc(c45)N23)cc1 | inactive
Nc1ccc(N2CCCCC2)c2nonc12 | inactive
C[n+]1cccc2cccc([O-])c21 | inactive
COc1cc(C(=O)c2nccc3cc(OC)c(OC)cc23)c([N+](=O)[O-])cc1OC | 4.04 µM
O=C(O)c1cc(O)c2c(c1)[C@H]([C@H]1c3cc(C(=O)O)cc(O)c3C(=O)c3c(O[C@@H]4O[C@H](CO)[C@@H](O)[C@H](O)[C@H]4O)cccc31)c1cccc(OC3O[C@H](CO)[C@@H](O)[C@H](O)[C@H]3O)c1C2=O (some centres not stated) | 7.68 µM
Oc1c(N=Nc2nn[nH]n2)ccc2ccccc12 | inactive
CC(C)=CCC1=C(OCC(=O)O)C(=O)c2ccccc2C1=O | inactive
CCCCCCCCCCCCCCCCn1cc[n+](C)c1 | 7.06 µM
NC1=C(Br)C(=O)c2ncccc2C1=O | 1.1 µM
O=C(O)CSc1cc(NS(=O)(=O)c2cccc([N+](=O)[O-])c2)c2ccccc2c1O | 7.61 µM
O=S(=O)(Nc1cc2nc3ccccc3nc2n1Cc1ccccc1)c1ccc(Cl)cc1 | 7.6 µM
COCCN1C=C2C(=O)C(C)(OC(=O)C3CCCC3)C(=O)C(c3ccccc3)=C2C=C1CCCC(=O)OC (configuration not stated) | inactive
CNc1ccc2nc3ccccc3[n+](C)c2c1 | inactive
C[n+]1c(-c2ccccc2)c2cc(N)ccc2c2ccc(N)cc21 | inactive
C=CCN1C(=O)/C(=C/c2ccc(OC(C)=O)c(OCC)c2[N+](=O)[O-])SC1=S | inactive
CC[n+]1c(-c2ccccc2)c2cc(N)ccc2c2ccc(N)cc21 | 3.32 µM

SMILES | IC50
Cc1ccccc1NC1=C/C(=N\S(=O)(=O)c2ccc(C(=O)O)cc2)c2ccccc2C1=O | 0.536 µM
Cn1nc(-c2ccccn2)nc2c(=O)n(C)c(=O)nc1-2 | 1.16 µM
Cc1ccc2c(c1C)-c1c(ccc(C)c1C)C(=O)C2=O | inactive
Cc1c(C=O)c(Cl)n(C)c(=O)c1C#N | inactive
CCCCCCCCCCCCN1[C@@H](CC(=O)O)c2cc(F)ccc2S1(=O)=O | inactive
O=[N+]([O-])c1c(Nc2ccccn2)cc(Cl)c2nonc12 | inactive
O=C(O)CSc1cc(NS(=O)(=O)c2ccc(Cl)cc2)c2ccccc2c1O | inactive
NC1=CC(=O)C(=O)c2cccnc21 | 4.94 µM
C[n+]1c2ccccc2nc2ccc(NCCO)cc21 | inactive
O=C(O)CCCNc1cc(N2CCN(C(=O)c3ccco3)CC2)c2noc3c2c1C(=O)c1ccccc1-3 | inactive
O=C(COC(=O)c1ccc([N+](=O)[O-])s1)NCc1ccc(F)cc1 | inactive
COc1ccc(CNC(=O)c2c(C)oc3c2C(=O)c2ccccc2C3=O)cc1 | inactive
Cc1nc2c(o1)C(=O)c1ccccc1C2=Nc1ccccc1 | inactive
CC(=O)N(C1=C(N)C(=O)c2ccccc2C1=O)c1ccccc1 | inactive
COc1ccc(/C=N/NC(=O)c2nn(-c3ccccc3)c(=O)c3c(N)scc23)cc1 | inactive
CCOC(=O)c1c2c(n(Cc3ccccc3)c1C)C(=O)C(=O)c1ccccc1-2 | 1.49 µM
O=C1Cc2ccccc2C(=O)N1Cc1ccccc1 | 1.3 µM
O=S(=O)(N=C1C=CC(=NS(=O)(=O)c2ccccc2)c2ccccc21)c1ccccc1 | inactive
S=C(Nc1ccc(Cl)cc1)Nc1cccc2cnccc12 | 8.74 µM
COc1ccc(-n2c3nc4ccccc4nc3c3c(=N)oc(C)nc32)cc1 | > 115 µM (inactive)
CC1(C)C=C2C(=NN(c3ccccc3)C(N)=C2C#N)CO1 | inactive
Cc1cc(=O)c2c(o1)C(=O)c1occc1C2=O | inactive

SMILES | IC50
COc1ccccc1N=Nc1c(O)[nH]c(=S)[nH]c1=O | inactive
CCCCCCCCN1C(=O)[C@@H](CC(=O)NCCCOCCCC)C[C@@]2(C(=O)OC)C1=C[C@H](C(C)C)O[C@@H]2C1CC1 | inactive
Cc1oc2c(c1C(=O)O)C(=O)c1ccccc1C2=O | inactive
C=CCN(CC=C)C(=S)Nc1ccc2nsnc2c1 | inactive
CCOc1ccc2noc3c2c1C(=O)c1ccccc1-3 | inactive
CCOC(=O)c1cc2c(=Cc3ccc(N(C)C)cc3)c3ccccc3n2[n+]1C | 5.69 µM
O=C1Nc2ccc([N+](=O)[O-])cc2C1=Nc1cccc(CO)c1 | inactive
CC(=O)N(C)c1ccc(N=Cc2cc3c(cc2[N+](=O)[O-])OCO3)cc1 | inactive
O=C(O)c1cccc(NC2=C(n3nnc4ccccc43)C(=O)c3ccccc3C2=O)c1 | inactive
COc1cccc2c1C(=O)c1c(O)c3c(c(O)c1C2=O)C[C@@](O)(C(=O)CO)C[C@@H]3O[C@H]1C[C@H](N)[C@H](O)[C@H](C)O1 | inactive
CCN(CC)CCCC(C)n1c2nc(=O)[nH]c(=O)c-2nc2cc(Cl)ccc21 (configuration not stated) | 5.44 µM
Cc1cnc(C=NNC(N)=S)c2cccc(N)c12 | inactive
COc1cc(NCCCCCCN)c2ncccc2c1OC | 5.97 µM
CCOC(=O)/C=C(\C)Sc1cc(O)c2ccccc2c1O | 4.61 µM
COc1ccccc1NC(=O)COC(=O)c1ccc([N+](=O)[O-])s1 | inactive
COc1cc(NC(C)CCCN)c2ncccc2c1 (configuration not stated) | inactive
Nc1cc2c(cc1Br)[nH]c(=O)c1ccccc12 | 4.57 µM
COC(CNC(=O)c1ccc2c3c(onc13)-c1ccccc1C2=O)OC | inactive
CC(=O)[C@@H]1[C@@H]2C(=O)N(c3ccc(F)c(Cl)c3)C(=O)[C@@H]2C2c3ccccc3C=CN21 (some centres not stated) | inactive
